The assay concerns the target b-Raf (V600E) (Homo sapiens (Human), UniProt P15056, V600E). As to conditions: read-out: b-Raf IC-50; AlphaScreen, 60 min pre-incubation, reaction 3 hours at room temperature. (In general: Alpha assays give light when donor and acceptor beads are brought close together.)
Sequence of b-Raf (V600E) (P15056 whole entry V600E): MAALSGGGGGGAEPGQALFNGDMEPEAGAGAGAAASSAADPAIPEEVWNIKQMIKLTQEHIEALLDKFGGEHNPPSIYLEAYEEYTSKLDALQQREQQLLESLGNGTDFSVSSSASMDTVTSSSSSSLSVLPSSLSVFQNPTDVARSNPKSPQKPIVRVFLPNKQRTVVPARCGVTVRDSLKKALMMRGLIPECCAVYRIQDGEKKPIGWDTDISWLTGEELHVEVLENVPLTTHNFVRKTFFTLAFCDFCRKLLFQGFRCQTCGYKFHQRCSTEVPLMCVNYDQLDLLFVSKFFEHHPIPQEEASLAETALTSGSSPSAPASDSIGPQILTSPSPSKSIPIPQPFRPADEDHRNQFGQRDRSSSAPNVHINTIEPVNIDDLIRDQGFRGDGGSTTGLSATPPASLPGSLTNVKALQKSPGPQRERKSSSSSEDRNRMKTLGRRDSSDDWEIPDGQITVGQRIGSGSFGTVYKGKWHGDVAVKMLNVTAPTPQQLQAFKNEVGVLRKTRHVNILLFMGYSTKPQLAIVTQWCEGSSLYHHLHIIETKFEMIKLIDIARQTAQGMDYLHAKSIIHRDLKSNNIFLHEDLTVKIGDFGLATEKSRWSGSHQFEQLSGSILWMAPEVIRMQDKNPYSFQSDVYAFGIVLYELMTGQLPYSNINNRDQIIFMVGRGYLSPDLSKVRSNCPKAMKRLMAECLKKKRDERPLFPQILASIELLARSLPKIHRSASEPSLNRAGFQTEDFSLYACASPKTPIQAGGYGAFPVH
In the case of `Cc1ncc(NC(=O)c2ccnc(C(C)(C)C#N)c2)cc1-c1cc(N2CCOCC2)nc(N2CC(O)C2)c1` [Example 1083, 2-(2-cyanopropan-2-yl)-N-(2′-(3-hydroxyazetidin-1-yl)-2-methyl-6′-morpholino-[3,4′-bipyridin]-5-yl)isonicotinamide], the IC50 stood at 35.2 nM. As to `Cc1ncc(NC(=O)c2cccc(S(C)(=O)=O)c2)cc1-c1cc(N2CCOCC2)nc(N2CC(O)C2)c1` [Example 1084, N-(2′-(3-hydroxyazetidin-1-yl)-2-methyl-6′-morpholino-[3,4′-bipyridin]-5-yl)-3-(methylsulfonyl)benzamide], the IC50 was 23.3 nM. On to `Cc1ncc(NC(=O)c2cc(CN(C)C)cc(C(F)(F)F)c2)cc1-c1cc(N2CCOCC2)nc(N2CC(O)C2)c1` [Example 1085, 3-((dimethylamino)methyl)-N-(2′-(3-hydroxyazetidin-1-yl)-2-methyl-6′-morpholino-[3,4′-bipyridin]-5-yl)-5-(trifluoromethyl)benzamide], for which the IC50 is 108 nM.

Regarding `CCn1cc(C(=O)Nc2cnc(C)c(-c3cc(N4CCOCC4)nc(N4CC(O)C4)c3)c2)cc(C(F)(F)F)c1=O` [Example 1086, 1-ethyl-N-(2′-(3-hydroxyazetidin-1-yl)-2-methyl-6′-morpholino-[3,4′-bipyridin]-5-yl)-6-oxo-5-(trifluoromethyl)-1,6-dihydropyridine-3-carboxamide], the IC50 was found to be 20.7 nM. On to `CCN1CCN(c2cc(C(=O)Nc3cnc(C)c(-c4cc(N5CCOCC5)nc(N5CC(O)C5)c4)c3)cc(C(F)(F)F)c2)CC1` [Example 1087, 3-(4-ethylpiperazin-1-yl)-N-(2′-(3-hydroxyazetidin-1-yl)-2-methyl-6′-morpholino-[3,4′-bipyridin]-5-yl)-5-(trifluoromethyl)benzamide], for which the IC50 was 26.5 nM. Consider `Cc1ncc(NC(=O)c2ccnc(C(F)(F)F)c2)cc1-c1cc(N2CCOCC2)nc(N2CC(O)C2)c1` [Example 1088, N-(2′-(3-hydroxyazetidin-1-yl)-2-methyl-6′-morpholino-[3,4′-bipyridin]-5-yl)-2-(trifluoromethyl)isonicotinamide], for which the IC50 was 4.06 nM.

In the case of `Cc1ncc(NC(=O)c2ccnc(C(C)(C)C)c2)cc1-c1cc(N2CCOCC2)nc(N2CC(O)C2)c1` [Example 1089, 2-(tert-butyl)-N-(2′-(3-hydroxyazetidin-1-yl)-2-methyl-6′-morpholino-[3,4′-bipyridin]-5-yl)isonicotinamide], the IC50 came to 71.4 nM. For `Cc1ncc(NC(=O)c2ccnc(S(C)(=O)=O)c2)cc1-c1cc(N2CCOCC2)nc(N2CC(O)C2)c1` [Example 1090, N-(2′-(3-hydroxyazetidin-1-yl)-2-methyl-6′-morpholino-[3,4′-bipyridin]-5-yl)-2-(methylsulfonyl)isonicotinamide], the IC50 came out at 51.1 nM. As to `Cc1ncc(NC(=O)c2cccc(C(C)(C)S(C)(=O)=O)c2)cc1-c1cc(N2CCOCC2)nc(N2CC(O)C2)c1` [Example 1091, N-(2′-(3-hydroxyazetidin-1-yl)-2-methyl-6′-morpholino-[3,4′-bipyridin]-5-yl)-3-(2-(methylsulfonyl)propan-2-yl)benzamide], the IC50 was 1110 nM.

Consider `Cc1ncc(NC(=O)c2cccc(-c3nnco3)c2)cc1-c1cc(N2CCOCC2)nc(N2CC(O)C2)c1` [Example 1092, N-(2′-(3-hydroxyazetidin-1-yl)-2-methyl-6′-morpholino-[3,4′-bipyridin]-5-yl)-3-(1,3,4-oxadiazol-2-yl)benzamide], for which the IC50 was 34.9 nM. Consider `Cc1ncc(NC(=O)c2cc(C3CC3)on2)cc1-c1cc(N2CCOCC2)nc(N2CC(O)C2)c1` [Example 1093, 5-cyclopropyl-N-(2′-(3-hydroxyazetidin-1-yl)-2-methyl-6′-morpholino-[3,4′-bipyridin]-5-yl)isoxazole-3-carboxamide], for which the IC50 worked out at 6.58 nM. In the case of `Cc1ncc(NC(=O)c2cccc(C(F)(F)F)c2)cc1-c1cc(N2CCOCC2)nc(N2CC(O)C2)c1` [Example 1094, N-(2′-(3-hydroxyazetidin-1-yl)-2-methyl-6′-morpholino-[3,4′-bipyridin]-5-yl)-3-(trifluoromethyl)benzamide] it was 3.84 nM; in that of `Cc1ccc(NC(=O)c2cc(C3CC3)on2)cc1-c1cc(N2CCOCC2)nc(N2CC(O)C2)c1` [Example 1095, 5-cyclopropyl-N-(3-(2-(3-hydroxyazetidin-1-yl)-6-morpholinopyridin-4-yl)-4-methylphenyl)isoxazole-3-carboxamide], 1.11 nM; in that of `Cc1ccc(NC(=O)c2cccc(S(C)(=O)=O)c2)cc1-c1cc(N2CCOCC2)nc(N2CC(O)C2)c1` [Example 1096, N-(3-(2-(3-hydroxyazetidin-1-yl)-6-morpholinopyridin-4-yl)-4-methylphenyl)-3-(methylsulfonyl)benzamide], 2 nM. For the compound `Cc1ccc(NC(=O)c2ccnc(S(C)(=O)=O)c2)cc1-c1cc(N2CCOCC2)nc(N2CC(O)C2)c1` [Example 1097, N-(3-(2-(3-hydroxyazetidin-1-yl)-6-morpholinopyridin-4-yl)-4-methylphenyl)-2-(methylsulfonyl)isonicotinamide], the IC50 was 3.32 nM.

As to `Cc1ccc(NC(=O)c2ccnc(C(C)(C)O)c2)cc1-c1cc(N2CCOCC2)nc(N2CC(O)C2)c1` [Example 1098, N-(3-(2-(3-hydroxyazetidin-1-yl)-6-morpholinopyridin-4-yl)-4-methylphenyl)-2-(2-hydroxypropan-2-yl)isonicotinamide], the IC50 was 5.75 nM. With `Cc1ccc(NC(=O)c2cccc(C(C)(C)S(C)(=O)=O)c2)cc1-c1cc(N2CCOCC2)nc(N2CC(O)C2)c1` [Example 1099, N-(3-(2-(3-hydroxyazetidin-1-yl)-6-morpholinopyridin-4-yl)-4-methylphenyl)-3-(2-(methylsulfonyl)propan-2-yl)benzamide], the IC50 stood at 18.8 nM. In the case of `Cc1ccc(NC(=O)c2cccc(-c3nnco3)c2)cc1-c1cc(N2CCOCC2)nc(N2CC(O)C2)c1` [Example 1100, N-(3-(2-(3-hydroxyazetidin-1-yl)-6-morpholinopyridin-4-yl)-4-methylphenyl)-3-(1,3,4-oxadiazol-2-yl)benzamide] it was 3.89 nM; in that of `Cc1ncc(NC(=O)c2cnnc(C3CC3)c2)cc1-c1cc(N2CCOCC2)nc(N2CC(C)(O)C2)c1` [Example 1101, 6-cyclopropyl-N-(2′-(3-hydroxy-3-methylazetidin-1-yl)-2-methyl-6′-morpholino-[3,4′-bipyridin]-5-yl)pyridazine-4-carboxamide], 13.7 nM; in that of `Cc1ncc(NC(=O)c2ccnc(C3CC3)c2)cc1-c1cc(N2CCOCC2)nc(N2CC(C)(O)C2)c1` [Example 1102, 2-cyclopropyl-N-(2′-(3-hydroxy-3-methylazetidin-1-yl)-2-methyl-6′-morpholino-[3,4′-bipyridin]-5-yl)isonicotinamide], 4.45 nM. The value for `Cc1ncc(NC(=O)c2ccnc(C(F)F)c2)cc1-c1cc(N2CCOCC2)nc(N2CC(C)(O)C2)c1` [Example 1103, 2-(difluoromethyl)-N-(2′-(3-hydroxy-3-methylazetidin-1-yl)-2-methyl-6′-morpholino-[3,4′-bipyridin]-5-yl)isonicotinamide] was 6.7 nM.

Consider `Cc1ncc(NC(=O)c2ccnc(C(F)(F)F)c2)cc1-c1cc(N2CCOCC2)nc(N2CC(C)(O)C2)c1` [Example 1104, N-(2′-(3-hydroxy-3-methylazetidin-1-yl)-2-methyl-6′-morpholino-[3,4′-bipyridin]-5-yl)-2-(trifluoromethyl)isonicotinamide], for which the IC50 came out at 7.64 nM.

For the origin of these results see US9694016B2 (Novartis AG, priority 2013, dated 2017).
